Laboratory results taken from patent US10376476B2, “Panicein compounds, compositions and uses thereof” (CENTRE NATIONAL DE LA RECHERCHE SCIENTIFIQUE, priority 2014, dated 2019).

Molecular target: T1, human Patched (hPtc) expressed in S. cerevisiae (Homo sapiens, UniProt Q13635)
T1 construct: MAP; expressed in transfected cells; host or cells: Saccharomyces cerevisiae K699
T1 sequence (Q13635 1-1447): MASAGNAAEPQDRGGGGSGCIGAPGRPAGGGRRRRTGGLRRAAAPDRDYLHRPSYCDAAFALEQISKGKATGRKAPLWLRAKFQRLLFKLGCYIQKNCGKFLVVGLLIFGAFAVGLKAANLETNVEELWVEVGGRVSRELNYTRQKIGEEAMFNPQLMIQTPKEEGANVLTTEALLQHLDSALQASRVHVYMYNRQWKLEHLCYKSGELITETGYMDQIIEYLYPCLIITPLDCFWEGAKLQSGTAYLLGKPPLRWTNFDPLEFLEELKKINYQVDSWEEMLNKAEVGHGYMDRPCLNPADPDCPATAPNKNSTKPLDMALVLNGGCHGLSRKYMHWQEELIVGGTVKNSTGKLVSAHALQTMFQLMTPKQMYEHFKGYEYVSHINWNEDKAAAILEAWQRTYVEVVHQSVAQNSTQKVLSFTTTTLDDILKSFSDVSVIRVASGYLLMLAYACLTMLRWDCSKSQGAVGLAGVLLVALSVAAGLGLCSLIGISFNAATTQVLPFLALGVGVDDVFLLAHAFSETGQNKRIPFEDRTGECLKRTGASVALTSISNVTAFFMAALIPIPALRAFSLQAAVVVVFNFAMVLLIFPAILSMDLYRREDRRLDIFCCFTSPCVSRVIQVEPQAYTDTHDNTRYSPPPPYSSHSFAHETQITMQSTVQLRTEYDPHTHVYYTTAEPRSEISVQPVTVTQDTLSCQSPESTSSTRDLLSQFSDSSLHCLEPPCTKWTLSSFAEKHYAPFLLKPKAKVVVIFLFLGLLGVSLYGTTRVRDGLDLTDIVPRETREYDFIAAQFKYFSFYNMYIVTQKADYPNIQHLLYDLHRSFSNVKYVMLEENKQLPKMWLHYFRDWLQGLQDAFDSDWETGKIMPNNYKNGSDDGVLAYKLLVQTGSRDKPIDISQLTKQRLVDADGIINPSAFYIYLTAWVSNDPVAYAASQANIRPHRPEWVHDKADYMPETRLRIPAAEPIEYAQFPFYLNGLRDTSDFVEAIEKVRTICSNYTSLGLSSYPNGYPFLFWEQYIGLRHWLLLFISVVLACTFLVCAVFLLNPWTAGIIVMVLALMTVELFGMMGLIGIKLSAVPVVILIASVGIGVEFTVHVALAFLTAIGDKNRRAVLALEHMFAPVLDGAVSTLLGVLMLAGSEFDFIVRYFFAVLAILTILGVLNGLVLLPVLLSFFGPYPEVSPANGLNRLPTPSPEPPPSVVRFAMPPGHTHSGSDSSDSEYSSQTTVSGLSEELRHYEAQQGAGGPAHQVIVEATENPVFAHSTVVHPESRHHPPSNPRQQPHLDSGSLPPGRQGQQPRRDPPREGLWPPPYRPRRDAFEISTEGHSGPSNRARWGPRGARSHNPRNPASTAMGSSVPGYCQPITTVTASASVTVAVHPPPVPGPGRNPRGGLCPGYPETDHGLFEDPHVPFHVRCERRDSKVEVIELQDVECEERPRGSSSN
Assay: Screening test 1: resistance of Patched-expressing yeast to doxorubicin (yeast growth, absorbance 600 nm)
Type: cell-based
Conditions: 10 μg/mL fraction or purified compound, 10 μM doxorubicin
Procedure: A. Haliclona mucosa sponge. B. Haliclona mucosa methanolic fraction contains inhibitors of the resistance of Patched-expressing yeasts to doxorubicin. Yeast S. cerevisiae expressing hPtc were grown in 96 well plates in the presence of 10 μg/mL of the methanolic fraction of Haliclona mucosa crude extract dissolved in DMSO and in presence or not of 10 μM of doxorubicin (dxr). The growth of yeasts was measured by absorbance at 600 nm and the results shown are the mean of three independent experiments. C. Purification profile of Haliclona mucosa methanolic fraction. A preparative phenyl-hexyl HPLC column was used with a gradient starting at (47 H20: 53 ACN: 0.1 TFA) to (0 H20: 100 ACN: 0.1 TFA), flow rate: 10.0 mL/min, injection volume: 75 μl at 100 mg/mL. […] Purified compounds dissolved in DMSO were added (at 10 μg/mL) to the growth medium containing or not 10 μM dxr. The growth of yeasts was measured by absorbance at 600 nm.
S. cerevisiae expressing human Patched were grown in 10 mL of minimal medium (supplemented with 2% of glucose and amino acids cocktail without leucine) at 30° C. When the exponential phase was obtained (OD600=5-7), yeasts were precultured in the same medium to OD600=1-2. Yeasts were then diluted in rich medium containing 2% of glucose in 96-well plates. Methanolic or purified fractions (at 10 μg/mL final concentration) were added in all wells, and doxorubicin (10 μM final concentration) was added in half of the wells. Plates were incubated at 18° C. on a shaker at 1250 rpm (microtitre plate shaker SSL5 Stuart) and absorbance at 600 nm was recorded for about 72 hours.
Inventors cultured yeast S. cerevisiae expressing human Patched in their plasma membrane as previously described (Bidet et al., 2011, 2012) in 96 well plates. Methanolic fraction of Haliclona mucosa crude extracts was prepared, dissolved in DMSO at 10mg/mL and added at a final concentration of 10 μg/mL to the yeast culture medium supplemented or not with doxorubicin (dxr). As previously reported (Bidet et al., 2012), human Patched confers a resistance to growth inhibition by dxr, an […] used to treat a wide range of cancers (FIG. 2B).

Compound	inhibition of the resistance (growth) of hPtc-expressing yeast in presence of dxr
C/C(=C\Cc1cc(O)ccc1O)CCc1c(C)c(O)c(O)c(C=O)c1C [P2, Panicein C]	strongly inhibit
C/C(=C\Cc1cc(O)ccc1O)CCc1c(C)cc(O)c(C=O)c1C [P3, Panicein B3]	strongly inhibit
Cc1cc(O)c(C=O)c(C)c1CCC1(C)C=Cc2cc(O)ccc2O1 (stereo not shown) [P4, Panicein B2]	lighter
COc1cc(C)c(CC/C(C)=C/Cc2cc(O)ccc2O)c(C)c1C [P5, Panicein A hydroquinone]	strongly inhibit
